Experiments:
Assay type in all cases: physicochemical
[1] = 1-MCP release with pump vs without pump in sealed apple storage room; conditions: box fan on vs off, first 240 minutes, 0.5 kg activated carbon bed, sealed room 2-6° C.
Procedure: This example describes the effect of directing gaseous fluid flow through a delivery material on the rate of release of active ingredients. Specifically, gaseous 1-MCP release via pump-driven gas flow was compared to release in the absence of pump-driven flow.
(§1) A pump in the form of a 20″×20″ box fan was placed inside of a 33,264 cubic foot apple storage room kept at a temperature between 2-6° C., with the fan facing up and elevated several inches from the ground to allow space for air to enter the fan from below. The device was assembled by placing a metal air filter housing and a 20″×20″ air filter (Nordic Pure® Part 20201.8-3) on top of the fan, to which was added a 0.5 kg bed of a particulate delivery material in the form of activated carbon powder associated with an activated ingredient in the form of 1-MCP. Another identical 20″×20″ air filter was placed on top of the 1-MCP-loaded activated carbon and secured with a clamp. The apple storage room was vacated by the user and sealed before the fan was turned on. At the same time, in an adjacent, identical apple storage room, a second, identical device described above was set up with a 0.5 kg bed of activated carbon powder associated with 1-MCP. However, the fan of this second device was not turned on.

[2] = 1-MCP release rate as a function of air speed; conditions: five air speeds and 0 m/s, 0.5 kg activated carbon powder, sealed room of approximately 30,000 cubic feet
Procedure: This example describes the release rate of an active ingredient from a delivery material as a function of gaseous fluid flow rate through the delivery material. Specifically, the rate of gaseous 1-MCP release via pump-driven air flow was measured as a function of the air flow rate.
In a sealed apple storage room of approximately 30,000 cubic feet, 0.5 kg of a particulate delivery material in the form of activated carbon powder associated with an activated ingredient in the form of 1-MCP was held in front of pumps in the form of fans with known air speeds for greater than 2 hours each. The fan type and geometry was varied to access various air speeds. The concentration of 1-MCP in the atmosphere of the sealed apple storage room was monitored using measurements from a detector making use of the C2H4 sensor described in Example 1, and release rates were calculated at five different air speeds, as well as at a flow rate of 0 m/s.

[3] = 1-MCP release, dry forced-air (duct fan) vs water-based release in sealed apple storage room; conditions: sealed room 2-6° C.
Procedure: This example describes a comparison of active ingredient release profiles and rates using a device and system of this disclosure as compared to an existing technique. Specifically, gaseous 1-MCP release via pump-driven gaseous fluid flow was compared to water-based release of 1-MCP.
A pump in the form of a duct fan was placed inside of a 30,624 cubic foot apple storage room kept between 2-6° C. The fan was placed facing up onto two iron bars to allow space for air to enter below the fan. The device was assembled by placing a 12″ mesh sieve on top of the duct fan, to which was added a 1 kg bed of a particulate delivery material in the form of activated carbon powder associated with an activated ingredient in the form of 1-MCP. The sieve and delivery material was then contained by placing a pair of nylon stockings over the opening of the sieve and sealing it all with duct tape. The room was vacated by the user and sealed before the fan was turned on. […] At the same time, a comparative experiment was performed by placing, in an adjacent identical apple storage room, a bucket containing 12 L of distilled water and 4 aerators (each of which produced 0.024 cubic feet per min, 0.096 cubic feet per minute total). […] The 1-MCP levels in the sealed apple storage room for the second, comparative experiment was measured in the same manner as described above.

[4] = 1-MCP buildup and retention in sealed vs unsealed apple storage room, box fan device; conditions: 2-6° C., after 15 hours of running the fan, 0.5 kg activated carbon bed
Procedure: This example describes release of an active ingredient into an enclosure using a device and system as described in this disclosure. Specifically, gaseous 1-MCP buildup and retention in an enclosure in the form of a sealed apple room was compared to buildup and retention in an unsealed apple storage room.
as §1, with “an activate” for “an activated”, “on. […] The C2H4 sensor was calibrated for 1-MCP by comparison with gas chromatography readings, and reported values in millivolts which were subtracted from baseline readings for” for “on. At”, “the detector and then converted via” for “the same time, in an adjacent, identical apple storage room, a second, identical device described above was set up with a 0.5 kg bed of activated carbon powder associated with 1-MCP. However,”, “the calibration curve to concentration measurements. […]” for “the fan of this second device was not turned on.”

CC1=CC1 [1-MCP, 1-methylcyclopropene]
1-MCP release with pump compared to no pump [1]: released at a greater rate and in greater amounts | 1-MCP release rate as a function of air speed [2]: greater rate when faster air speeds were used | duration of sustained release ([3]; dry forced-air release method, duct fan): > 170 min | increase in rate of release, dry forced-air release vs water-based release ([3]; initial slope of concentration profiles, 1 kg activated carbon bed): 16 fold | measured 1-MCP level in room ([4]; sealed apple storage room): greater 1-MCP level | measured 1-MCP level in room ([4]; unsealed apple storage room (portal door open)): significant level of 1-MCP
